Data published in US20160200847A1, “CLICKABLE POLYMERS AND GELS FOR MICROARRAY AND OTHER APPLICATIONS” (priority 2014, published 2016).

Biological target: T1, Concanavalin A (ConA) (Canavalia ensiformis, UniProt P02866)
T1 construct: purchased Sigma Aldrich
Assay: Glycan microarray incubated with biotinylated ConA, Cy3-streptavidin fluorescence detection
Type: binding
Details: spotted at 50 μM; 100 ng/ml (0.943 nM) biotinylated ConA; Cy3-labelled streptavidin
Description: Four hundreds pL of each glycan was spotted at 10 μM or 50 μM concentration from an aqueous solution of […] (2.5 mM) and ascorbic acid (12.5 mM). A α-mannoside (10) and β-galactoside (11) were used as positive and negative controls. The immobilization reaction took place during an overnight incubation in a humid chamber at room temperature. The printed slides were sequentially washed with PBS buffer for 10 minutes with DI water and dried by a nitrogen stream. The arrayed slides were then incubated with biotinylated α-mannose-binding lectin Concanavalin A (ConA) in the lectin binding buffer (LBB, 50 mM HEPES, pH 7.4, 5 mM MnCl2, 5 mM CaCl2) in the presence of BSA (0.2 mg/ml). […] A final incubation of 1 h with 2 μg/ml Cyanine3 labelled Streptavidin in PBS (Phosphate Saline Buffer) in a humid chamber at room temperature under static condition enabled the fluorescence detection of the surface bound ConA by means of a scanner (ProScanArray scanner from Perkin Elmer, Boston, Mass., USA) used at 70% of laser power and 60% of photomultiplier (PMT) gain (FIG. 2b). The fluorescence intensities of 11 spot replicates were confirmed by three experiments that provided the same fluorescence intensities for each glycomimetic, with a standard deviation lower than 5%. […]
The graph (b) of FIG. 2 reports the fluorescence intensity observed for different glycan spots. […]

OC[C@H]1O[C@@H](O)[C@H](O)[C@@H](O)[C@H]1O [Glycomimetic 11, β-galactose]
interaction with ConA (spot fluorescence intensity, qualitative): lack of fluorescence
